Experimental data published in patent publication US8481789B2, “Method for producing natural 9-decen-2-one by bioconverting undecylenic acid using a mold, and use in the perfume and food flavoring fields” (priority 2008, dated 2013).

Tests used:
rabbits [1] = assay: Acute eye irritation (OECD guideline No. 405, method B.5); type: in vivo, rabbit; conditions: 3 rabbits
Experimental: Similarly, the molecule was tested on 3 rabbits according to the experimental protocol established by “the OECD guideline No. 405 dated Apr. 24, 2002” and the test “method B.5 of the Directive No. 2004/73/EC): Acute eye irritation”.
It also emerges therefrom that 9-decen-2-one is not irritant and that no hazard symbol or phrases are required for its use (according to the “EEC Directives 67/548/59 and 99/45”).

[2] = LD50 test (acute oral toxicity); conditions: in vivo
rabbits [3] = assay: Acute dermal irritation (OECD guideline No. 404, method B.4); type: in vivo, rabbit; conditions: 3 rabbits
Experimental: The molecule was tested on 3 rabbits according to the experimental protocol established by “the OECD guideline No. 404 dated Apr. 24, 2002” and the test “method B.4 of the Directive No. 2004/73/EC): Acute dermal irritation”.
It emerges therefrom that 9-decen-2-one is not irritant and that no hazard symbol or phrases are required for its use (according to the “EEC Directives 67/548/59 and 99/45”).

In the case of `C=CCCCCCCC(C)=O` [9-decen-2-one], the Acute eye irritation (rabbits [1]) is reported as “not irritant”, the LD50 [2] is reported as 2500 mg/kg and the Acute dermal irritation (rabbits [3]) is reported as “not irritant”.
